Reference: ChEMBL document CHEMBL5137070, “N-2-(Phenylamino) Benzamide Derivatives as Dual Inhibitors of COX-2 and Topo I Deter Gastrointestinal Cancers via Targeting Inflammation and Tumor Progression” (J Med Chem, 2022)
Active and inactive are the calls of the source. No cut-off for these calls is given here.

How the values were obtained:
[1] = test system: RKO; test: Effect on cell morphology in human RKO cells assessed as contracted nucleus at 10 uM incubated for 48 hrs by giemsa staining based microscopic analysis; type: functional
[2] = test system: CT26.WT; test: Anti-tumor activity against mouse CT26.WT xenografted in BALB/c mouse assessed as decrease in MMP-9 expression level in tumor tissue at 100 mg/kg, ip twice daily and measured after 14 days by immunohistochemical analysis; type: functional, organism-based; details: time 14.0 day
[3] = test system: RKO; test: Effect on cell morphology in human RKO cells assessed as appearance of smaller cells at 10 uM incubated for 48 hrs by giemsa staining based microscopic analysis; type: functional
[4] = test system: RKO; test: Anti-migration activity against human RKO cells assessed as inhibition of cell migration at 0.37 uM and measured after 24 hrs by wound healing assay; type: functional, cell-based
[5] = test system: RAW264.7; test: Antiinflammatory activity against LPS-stimulated mouse RAW264.7 cells assessed decrease in IL-1beta release at 1.1 uM incubated for 1 hrs followed by LPS stimulation and measured after 24 hrs by ELISA; type: functional, cell-based; details: time 25.0 hrs
[6] = test system: RAW264.7; test: Antiinflammatory activity in mouse RAW264.7 cells assessed as reduction in LPS-induced COX-2 expression at 6.6 uM incubated for 1 hrs followed by LPS stimulation and measured after 24 hrs by western blot analysis; type: functional, cell-based; details: time 25.0 hrs
[7] = test system: HGC-27; test: Effect on cell morphology in human HGC-27 cells assessed as appearance of smaller cells at 10 uM incubated for 48 hrs by giemsa staining based microscopic analysis; type: functional
[8] = test system: RAW264.7; test: Inhibition of LPS induced NO production in mouse RAW264.7 cells at 6.6 uM incubated for 1 hrs followed by LPS stimulation and measured after 24 hrs by Griess reagent based assay; type: functional, cell-based; details: time 25.0 hrs
[9] = test system: HGC-27; test: Effect on cell morphology in human HGC-27 cells assessed as contracted nucleus at 10 uM incubated for 48 hrs by giemsa staining based microscopic analysis; type: functional
[10] = Half in Sprague-Dawley rat at 100 mg/kg, ip and measured upto 8 hrs by LC-MS/MS analysis; type: ADME, organism-based; details: in vivo
[11] = target: T1, Nuclear factor NF-kappa-B complex (Homo sapiens) (UniProt Q00653+P19838+Q04206); test: Inhibition of NF-kappaB activation in human RKO cells assessed as downregulation of NF-kappaB phosphorylation at 10 uM for 48 hrs by DAPI staining based immunofluorescence assay; type: cell-based
[12] = target: T2, DNA topoisomerase 1 (Homo sapiens, UniProt P11387); test: Inhibition of human topoisomerase I assessed as DNA relaxation using DNA pBR322 as substrate incubated for 30 mins by ethidium bromide staining based agarose gel electrophoresis
T2 sequence (P11387 whole entry): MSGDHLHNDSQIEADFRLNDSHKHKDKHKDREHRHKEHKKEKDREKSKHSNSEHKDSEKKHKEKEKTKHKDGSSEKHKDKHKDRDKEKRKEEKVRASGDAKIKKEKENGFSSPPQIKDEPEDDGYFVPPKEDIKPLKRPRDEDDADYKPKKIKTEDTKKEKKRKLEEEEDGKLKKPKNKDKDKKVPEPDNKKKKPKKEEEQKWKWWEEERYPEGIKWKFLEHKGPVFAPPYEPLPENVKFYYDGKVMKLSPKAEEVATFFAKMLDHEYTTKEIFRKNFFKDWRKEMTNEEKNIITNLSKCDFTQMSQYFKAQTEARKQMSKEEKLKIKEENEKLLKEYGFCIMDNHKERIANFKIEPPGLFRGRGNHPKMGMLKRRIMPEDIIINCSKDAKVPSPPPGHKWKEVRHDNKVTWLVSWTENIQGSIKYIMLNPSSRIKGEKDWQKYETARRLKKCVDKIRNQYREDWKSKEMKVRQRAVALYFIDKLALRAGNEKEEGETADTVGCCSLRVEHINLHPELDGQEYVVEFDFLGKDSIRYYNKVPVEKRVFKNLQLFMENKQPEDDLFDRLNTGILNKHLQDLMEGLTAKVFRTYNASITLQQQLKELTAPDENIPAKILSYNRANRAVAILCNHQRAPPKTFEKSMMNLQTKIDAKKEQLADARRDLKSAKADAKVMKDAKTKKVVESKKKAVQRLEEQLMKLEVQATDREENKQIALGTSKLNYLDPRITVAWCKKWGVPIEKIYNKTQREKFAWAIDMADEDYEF

[13] = test system: SGC-7901; test: Antiproliferative activity against human SGC-7901 cells assessed as reduction in cell proliferation incubated for 48 hrs by MTT assay; type: functional, cell-based; details: SGC-7901, 48 h
[14] = Toxicity in BALB/c mouse xenografted with mouse CT26.WT assessed as change in body weight at 100 mg/kg, ip twice daily and measured upto 14 days relative to control; type: organism-based; details: in vivo, 336 h, time < 14 day
[15] = target: T3, DNA topoisomerase 1 (Homo sapiens) (UniProt P11387); test: Inhibition of human topoisomerase I assessed as DNA unwinding using DNA pBR322 as substrate at 2 uM incubated for 30 mins by ethidium bromide staining based agarose gel electrophoresis
T3 sequence (whole entry): T2 sequence (P11387 whole entry)

[16] = test system: CT26.WT; test: Anti-tumor activity against mouse CT26.WT xenografted in BALB/c mouse assessed as increase in cleaved caspase-3 expression level at 100 mg/kg, ip twice daily and measured after 14 days by immunohistochemical analysis; type: functional, organism-based; details: time 14.0 day
[17] = test system: RKO; test: Anti-metastasis activity against human RKO cells assessed as reduction in MMP-9 expression level at 3.3 to 10 uM for 24 hrs by western blot analysis; type: functional, cell-based; details: dose 3.3-10 µM
[18] = Acute toxicity in Kunming mouse assessed as mortality at 100 mg/kg,ip and measured upto 14 days; type: organism-based; details: in vivo, 336 h, time < 14 day
[19] = test system: HGC-27; test: Effect on cell morphology in human HGC-27 cells assessed as lose of adherence at 10 uM incubated for 48 hrs by giemsa staining based microscopic analysis; type: functional
[20] = test system: HT-29; test: Antiproliferative activity against human HT-29 cells assessed as reduction in cell proliferation incubated for 48 hrs by MTT assay; type: functional, cell-based; details: HT-29, 48 h
[21] = test system: HGC-27; test: Effect on cell morphology in human HGC-27 cells assessed as condensed morphology at 10 uM incubated for 48 hrs by giemsa staining based microscopic analysis; type: functional
[22] = test system: RKO; test: Induction of mitochondrial membrane loss in human RKO at 1.1 to 10 uM and measured after 36 hrs by TMRE dye based flow cytometry; type: functional, cell-based; details: dose 1.1-10 µM, DDE = dose-dependent effect
[23] = target: T1, Nuclear factor NF-kappa-B complex (Homo sapiens); test: Inhibition of NF-kappaB activation in human HT-29 cells assessed as reduction in TNFalpha-stimulated NF-kappaB nuclear translocation at 10 uM for 24 hrs followed by TNF- alpha stimulation for 1 hrs by DAPI staining based immunofluorescence assay; type: cell-based; details: time 25.0 hrs
[24] = test system: HGC-27; test: Induction of apoptosis in human HGC-27 cells assessed as increase in caspase-3 activity at 1.1 uM incubated for 36 hrs by flow cytometry (Rvb= 9.39%); type: functional
[25] = test system: CT26.WT; test: Antiproliferative activity against mouse CT26.WT cells assessed as reduction in cell proliferation incubated for 48 hrs by MTT assay; type: functional, cell-based
[26] = test system: HGC-27; test: Antiproliferative activity against human HGC-27 cells assessed as clone formation at 0.37 to 3.3 uM incubated for 4 days by crystal violet staining based analysis; type: functional, cell-based; details: dose 0.37-3.3 µM, time 4.0 day
[27] = test system: RKO; test: Induction of apoptosis in human RKO cells assessed as increase in cytochrome C level at 1.1 to 10 uM incubated for 24 hrs by western blot assay; type: functional, cell-based; details: dose 1.1-10 µM

T1 sequence (P19838 whole entry, looked up): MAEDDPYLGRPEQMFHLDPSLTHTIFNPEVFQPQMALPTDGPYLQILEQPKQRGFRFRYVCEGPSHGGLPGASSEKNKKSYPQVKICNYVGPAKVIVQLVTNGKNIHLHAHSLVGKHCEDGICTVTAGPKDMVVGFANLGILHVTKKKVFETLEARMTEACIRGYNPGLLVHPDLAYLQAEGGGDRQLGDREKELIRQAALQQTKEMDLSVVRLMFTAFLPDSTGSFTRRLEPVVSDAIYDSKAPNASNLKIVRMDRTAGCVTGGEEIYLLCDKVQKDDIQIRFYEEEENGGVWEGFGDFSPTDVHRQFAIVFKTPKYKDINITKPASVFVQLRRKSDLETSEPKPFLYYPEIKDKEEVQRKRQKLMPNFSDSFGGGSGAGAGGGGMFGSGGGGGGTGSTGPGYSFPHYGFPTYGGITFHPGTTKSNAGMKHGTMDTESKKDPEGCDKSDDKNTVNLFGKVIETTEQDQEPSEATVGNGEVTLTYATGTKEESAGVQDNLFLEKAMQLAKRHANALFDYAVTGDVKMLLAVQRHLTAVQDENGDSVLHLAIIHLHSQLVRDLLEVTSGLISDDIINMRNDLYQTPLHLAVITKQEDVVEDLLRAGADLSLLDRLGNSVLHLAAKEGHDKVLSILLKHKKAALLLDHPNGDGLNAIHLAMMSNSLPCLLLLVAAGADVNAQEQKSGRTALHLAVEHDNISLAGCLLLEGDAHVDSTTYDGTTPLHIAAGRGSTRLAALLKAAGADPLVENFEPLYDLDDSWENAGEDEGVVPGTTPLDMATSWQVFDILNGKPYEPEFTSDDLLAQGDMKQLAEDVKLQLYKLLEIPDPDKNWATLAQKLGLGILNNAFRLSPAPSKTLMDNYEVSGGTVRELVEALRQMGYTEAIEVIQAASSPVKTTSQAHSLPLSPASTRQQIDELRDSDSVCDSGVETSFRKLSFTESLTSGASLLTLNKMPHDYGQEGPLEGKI
T1 sequence (Q00653 whole entry, looked up): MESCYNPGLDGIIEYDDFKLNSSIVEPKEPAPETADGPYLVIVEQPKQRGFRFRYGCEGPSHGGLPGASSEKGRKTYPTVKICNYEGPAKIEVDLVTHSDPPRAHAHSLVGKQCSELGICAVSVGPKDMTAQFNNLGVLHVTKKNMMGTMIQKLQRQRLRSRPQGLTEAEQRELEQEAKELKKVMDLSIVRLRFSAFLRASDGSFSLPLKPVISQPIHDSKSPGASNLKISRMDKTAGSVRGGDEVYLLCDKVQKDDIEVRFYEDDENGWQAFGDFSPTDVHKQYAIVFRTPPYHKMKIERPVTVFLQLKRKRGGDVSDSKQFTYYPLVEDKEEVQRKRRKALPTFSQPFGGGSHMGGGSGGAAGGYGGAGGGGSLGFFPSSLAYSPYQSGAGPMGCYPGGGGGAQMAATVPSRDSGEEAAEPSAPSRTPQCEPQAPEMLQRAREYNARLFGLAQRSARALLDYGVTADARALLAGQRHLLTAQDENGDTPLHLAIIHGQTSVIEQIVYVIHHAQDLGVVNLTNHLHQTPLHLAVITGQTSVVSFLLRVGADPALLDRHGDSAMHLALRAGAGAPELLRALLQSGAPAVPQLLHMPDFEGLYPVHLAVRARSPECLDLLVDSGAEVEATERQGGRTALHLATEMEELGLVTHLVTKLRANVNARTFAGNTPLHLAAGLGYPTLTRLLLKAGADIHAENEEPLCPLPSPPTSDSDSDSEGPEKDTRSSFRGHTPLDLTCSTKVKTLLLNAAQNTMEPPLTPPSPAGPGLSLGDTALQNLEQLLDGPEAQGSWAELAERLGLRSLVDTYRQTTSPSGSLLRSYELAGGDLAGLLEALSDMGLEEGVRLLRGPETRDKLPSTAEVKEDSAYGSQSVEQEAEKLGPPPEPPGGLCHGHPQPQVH
T1 sequence (Q04206 whole entry, looked up): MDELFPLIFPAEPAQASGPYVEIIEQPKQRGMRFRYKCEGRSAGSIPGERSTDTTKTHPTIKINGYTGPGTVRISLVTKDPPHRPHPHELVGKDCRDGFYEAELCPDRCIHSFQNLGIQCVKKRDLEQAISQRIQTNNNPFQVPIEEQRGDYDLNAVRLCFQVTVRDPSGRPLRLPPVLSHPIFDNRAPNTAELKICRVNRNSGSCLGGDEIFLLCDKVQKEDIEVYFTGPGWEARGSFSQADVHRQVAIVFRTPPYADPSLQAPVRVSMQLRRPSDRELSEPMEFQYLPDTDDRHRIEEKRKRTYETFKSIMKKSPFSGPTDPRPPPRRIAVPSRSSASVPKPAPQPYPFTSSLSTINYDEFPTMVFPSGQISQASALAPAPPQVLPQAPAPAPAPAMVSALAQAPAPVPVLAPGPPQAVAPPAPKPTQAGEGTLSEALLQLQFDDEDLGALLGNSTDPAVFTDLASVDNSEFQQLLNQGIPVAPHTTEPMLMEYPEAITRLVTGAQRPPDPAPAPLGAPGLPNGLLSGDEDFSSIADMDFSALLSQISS

## Cc1c(Cl)cccc1Nc1ccc(F)cc1C(=O)NCc1ccc(O)c(O)c1
[1]
  Activity: Active
[2]
  Activity: Active
[3]
  Activity: Active
[4]
  Activity: Active
[5]
  Activity: Active
[6]
  Activity: Active
[7]
  Activity: Active
[8]
  inhibition: Active
[9]
  Activity: Active
[10]
  half-life: 1.56 h
[11]
  inhibition: Active
[12]
  IC50: 4.42 µM
[13]
  IC50: 15 µM
[14]
  Activity: Non-Toxic
[15]
  inhibition: 45.4%
[16]
  Activity: Active
[17]
  Activity: Active
[18]
  Activity: Non-Toxic
[19]
  Activity: Active
[20]
  IC50: 16.9 µM
[21]
  Activity: Active
[22]
  Activity: Dde
[23]
  inhibition: Active
[24]
  Activity: 57.64%
[25]
  IC50: 3.04 µM
[26]
  Activity: Active
[27]
  Activity: Active
